The results in this text go back to patent US20020071842A1, “Soluble CD1 compositions and uses thereof” (priority 2000, published 2002).

“Also recorded” adds a separate entry of the source.

What all share (assay): Plate-bound mCD1d fusion protein hybridoma stimulation assay (IL-2 ELISA)
What all share (type): cell-based, mouse

In one assay the test system is 24.8.A hybridoma. The following applies: for IL-2 secretion: 24.8 A NKT hybridoma, plate-bound mCD1d-IgGFc2a fusion protein preincubated with lipid antigen; for IL-2 response to mCD1d fusion protein pre-treated with purified or synthetic lipid: compared to untreated or buffer treated fusion protein. Summed up:
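Protein A plates were loaded with 400-600 ng/well mCD1d fusion protein, then given lipid antigen (40:1 molar ratio to fusion protein unless specified) in PBS pH 7.2 for 24-48 h at 37 °C. After washing, 1×10^5 hybridoma cells/well were added for 16-20 h at 37 °C. Secreted IL-2 measured by sandwich ELISA against a murine IL-2 standard curve.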

The test system of the next assay is XV104 hybridoma. The following applies: XV104 diverse TCR hybridoma; plate-bound mCD1d-IgGFc2a fusion protein preincubated with lipid antigen. The essentials:
(§1)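 IL-2 (pg/ml) by sandwich ELISA, regressed on a murine IL-2 standard curve, reports stimulation of hybridomas (1×10^5/well, 16-20 hr, 37° C) on immobilized mCD1d fusion protein pre-pulsed with lipid, 40:1 molar ratio by default, 24-48 hr at 37° C.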

Another assay relates to 24.9.E hybridoma. The following applies: for IL-2 secretion: 24.9 E NKT hybridoma, plate-bound mCD1d-IgGFc2a fusion protein preincubated with lipid antigen. The essentials: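 Protein A plates loaded with 400-600 ng/well mCD1d fusion protein plus lipid antigen (default 40:1 molar ratio), 24-48 hr at 37 °C, washed; hybridomas added at 1×10^5 cells/well for 16-20 hr. Supernatant IL-2 quantified by sandwich ELISA against murine IL-2 standard curve.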

The next assay relates to VIII24 hybridoma. The following applies: VIII24 diverse TCR hybridoma; plate-bound mCD1d-IgGFc2a fusion protein preincubated with lipid antigen. The essentials:
as §1

As for unglycosylated ceramide, the IL-2 secretion result in the assay on 24.8.A hybridoma was “+ (“+” indicates 50-250 pg/ml)”; in the assay with XV104 hybridoma it was 0 (A “0” indicates a mean of less than 50 pg/ml IL-2 was secreted); in the assay on 24.9.E hybridoma it was 0 (A “0” indicates a mean of less than 50 pg/ml IL-2 was secreted); in the assay with VIII24 hybridoma, 0 (A “0” indicates a mean of less than 50 pg/ml IL-2 was secreted). Also, in the assay with 24.9.E hybridoma (24.9.E hybridoma), the “IL-2 response to mCD1d fusion protein pre-treated with purified or synthetic lipid” value (“IL-2 response” below) is “neither the unglycosylated ceramide, nor the closely related β-linked form, β-GalCer, were recognized”.

For `CCCCCCCCCCCCCCCCCCCCCCCCCC(=O)N[C@@H](CO[C@H]1O[C@H](CO)[C@H](O)[C@H](O)[C@H]1O)[C@H](O)[C@H](O)CCCCCCCCCCCCCC` [α-GalCer, α-galactosylceramide], the “IL-2 response” value is “only a slightly enhanced response; also recorded: little IL-2 was secreted” in the assay with 24.8.A hybridoma (24.8.A hybridoma) and “responded strongly; also recorded: secreted IL-2 efficiently” in the assay with 24.9.E hybridoma (24.9.E hybridoma). Further, the IL-2 secretion entry with 24.8.A hybridoma was “+ (“+” indicates 50-250 pg/ml)”; in the assay on XV104 hybridoma, 0 (A “0” indicates a mean of less than 50 pg/ml IL-2 was secreted); in the assay with 24.9.E hybridoma, “+++ (“+++” indicates greater than 1000 pg/ml IL-2)”; with VIII24 hybridoma it was 0 (A “0” indicates a mean of less than 50 pg/ml IL-2 was secreted). Also, the “enhancement of antigen recognition after pre-incubation at pH 4.0 compared to pH 7.5” value with 24.9.E hybridoma (24.9.E hybridoma, 3:1 molar ratio of antigen to protein, citrate/phosphate buffer) was “approximately 4 fold”. Further, in the assay on 24.9.E hybridoma (24.9.E hybridoma, pH 7.5 to pH 3.0 tested), the “pre-incubation pH giving maximal IL-2 release” value is recorded as 4.0. Besides, the “IL-2 when the 19G11 anti-mCD1d mAb was included” value in the assay on 24.9.E hybridoma (24.9.E hybridoma, representative experiment, 19G11 blocking antibody included) was 103 pg/mL. For the same molecule, the “mean IL-2 produced” value in the assay on 24.9.E hybridoma (24.9.E hybridoma, representative experiment, mCD1d fusion protein pre-treated with antigen) is reported as 2,089 pg/ml.

As to β-galactosylceramide [β-GalCer], the IL-2 secretion entry is listed as “+ (“+” indicates 50-250 pg/ml)” in the assay with 24.8.A hybridoma, 0 (A “0” indicates a mean of less than 50 pg/ml IL-2 was secreted) in the assay with XV104 hybridoma, 0 (A “0” indicates a mean of less than 50 pg/ml IL-2 was secreted) in the assay on 24.9.E hybridoma and 0 (A “0” indicates a mean of less than 50 pg/ml IL-2 was secreted) in the assay with VIII24 hybridoma. The “IL-2 response” value in the assay on 24.9.E hybridoma (24.9.E hybridoma) is listed as “neither the unglycosylated ceramide, nor the closely related β-linked form, β-GalCer, were recognized”.

Regarding phosphatidylinositol [PI], the “IL-2 response” value in the assay with 24.8.A hybridoma (24.8.A hybridoma) is listed as “marked increase of IL-2 production; also recorded: significantly enhanced IL-2 release”; in the assay with 24.9.E hybridoma (24.9.E hybridoma) it was “only modestly increased IL-2 secretion; also recorded: significantly less IL-2”. For the same molecule, in the assay on 24.8.A hybridoma (24.8.A hybridoma, representative experiment, 19G11 blocking antibody included), the “IL-2 produced in the presence of the 19G11 anti-mCD1d mAb” value was “no detectable IL-2”. Further, in the assay on 24.8.A hybridoma (24.8.A hybridoma, representative experiment, mCD1d fusion protein pre-treated with antigen), the “mean IL-2 secreted” value is recorded as 4,746 pg/ml. Moreover, the IL-2 secretion entry in the assay on 24.8.A hybridoma is given as “+++ (“+++” indicates greater than 1000 pg/ml IL-2)”; in the assay with XV104 hybridoma it was 0 (A “0” indicates a mean of less than 50 pg/ml IL-2 was secreted); with 24.9.E hybridoma it was “+ (“+” indicates 50-250 pg/ml)”; in the assay with VIII24 hybridoma, 0 (A “0” indicates a mean of less than 50 pg/ml IL-2 was secreted). In addition, the “reduction of IL-2 secretion by phospholipase treatment of the antigen” value in the assay on 24.8.A hybridoma (PI treated with PLC or PLD prior to pre-incubation with the mCD1d fusion protein) is recorded as “approximately 70%”.
